# Reference: paper PMC6780696, “New Peptides from The Marine-Derived Fungi Aspergillus allahabadii and Aspergillus ochraceopetaliformis” (Marine Drugs, 2019)
# Positions of bridges follow the written chain, without caps; N, C: chain ends. Non-standard residues stand in square brackets, D forms with d. Residues, ends and D or L forms follow the SMILES beside them. NMeF = CN[C@@H](Cc1ccccc1)C(=O)O
# Legend:
# [1] = target: T1, recombinant ICL from C. albicans (Candida albicans, UniProt Q9P8Q7); assay: ICL inhibition assay; type: biochemical; details: 37 °C, 30 min
# T1 construct: made in house
# Experimental: The recombinant ICL from C. albicans was prepared and the inhibitory activity of the test compounds against ICL was determined by previously documented procedures. […] The increase in intensity of absorbance resulting from the formation of glyoxylate phenylhydrazone was observed using an UVmini-1240 spectrophotometer (SHIMADZU, Tokyo, Japan) at a wavelength of 324 nm. A known ICL inhibitor, 3-nitropropionic acid, was used as a reference control.
# [2] = target: T2, S. aureus-derived recombinant SrtA (Staphylococcus aureus, UniProt Q2FV99); assay: biochemical
# T2 construct: made in house; host or cells: E. coli
# [3] = target: isocitrate lyase (ICL) derived from C. albicans; design: method as in PMID 31167388; details: previously reported; cited from earlier work
# [4] = tested on: Bacillus cereus; design: method as in PMID 25001296; details: cited from earlier work
# [5] = tested on: Staphylococcus epidermidis; design: method as in PMID 25001296; details: cited from earlier work
# T2 sequence (Q2FV99 whole entry): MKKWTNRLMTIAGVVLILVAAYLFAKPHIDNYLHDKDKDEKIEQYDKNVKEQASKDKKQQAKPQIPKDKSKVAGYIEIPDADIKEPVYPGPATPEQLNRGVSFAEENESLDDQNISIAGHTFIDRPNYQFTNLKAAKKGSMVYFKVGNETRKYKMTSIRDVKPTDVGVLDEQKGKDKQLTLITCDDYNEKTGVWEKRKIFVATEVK
# T1 sequence (Q9P8Q7 whole entry): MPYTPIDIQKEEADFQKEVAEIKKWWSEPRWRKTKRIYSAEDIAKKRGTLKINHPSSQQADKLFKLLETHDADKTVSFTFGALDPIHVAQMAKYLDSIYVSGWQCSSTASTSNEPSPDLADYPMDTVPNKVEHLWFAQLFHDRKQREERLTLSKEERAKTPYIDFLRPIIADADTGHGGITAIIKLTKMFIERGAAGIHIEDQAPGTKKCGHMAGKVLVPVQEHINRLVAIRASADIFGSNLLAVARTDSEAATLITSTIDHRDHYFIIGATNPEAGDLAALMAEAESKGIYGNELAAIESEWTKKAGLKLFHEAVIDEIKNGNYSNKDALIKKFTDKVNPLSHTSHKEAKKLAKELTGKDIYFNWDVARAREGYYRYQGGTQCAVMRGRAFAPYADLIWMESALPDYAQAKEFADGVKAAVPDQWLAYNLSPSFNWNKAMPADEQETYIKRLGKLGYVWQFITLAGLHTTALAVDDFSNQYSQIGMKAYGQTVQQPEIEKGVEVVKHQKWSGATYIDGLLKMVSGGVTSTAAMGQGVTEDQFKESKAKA
Compound,IC50 [2],also measured
O=C(O)CC[N+](=O)[O-] [3-Nitropropionic acid],–,IC50 [1]: 18.5 µM
COc1ccc2cc3[n+](cc2c1OC)CCc1cc2c(cc1-3)OCO2 [Berberine chloride],104 µM,–
"CC(C)C[C@@H]1NC(=O)[C@@H]2CCCN2C(=O)[C@H](Cc2ccc(O)cc2)NC(=O)[C@H](Cc2ccccc2)N(C)C(=O)[C@H](C)NC1=O [Compound 1, JG002CPA] (cyclo(A[NMeF]YPL))",70 µM,–
"CC(C)[C@@H]1NC(=O)[C@@H]2CCCN2C(=O)[C@H](Cc2ccc(O)cc2)NC(=O)[C@H](Cc2ccccc2)N(C)C(=O)[C@H](C)NC1=O [Compound 2, JG002CPB] (cyclo(A[NMeF]YPV))",53.1 µM,IC50 [1]: 117 µM
"CC(=O)N[C@@H]1C(=O)N[C@H](C(C)C)C(=O)N2CCC[C@H]2C(=O)N[C@@H](Cc2ccc(O)cc2)C(=O)N(C)[C@@H](Cc2ccccc2)C(=O)N[C@@H](C)C(=O)O[C@@H]1C [Compound 3, FJ120DPA] (Ac-T[dV]PY[NMeF]A; ester 1-C)",132 µM,–
"CC(=O)N[C@H](C(=O)N[C@@H](C(=O)N1CCC[C@H]1C(=O)N[C@@H](Cc1ccc(O)cc1)C(=O)N(C)[C@@H](Cc1ccccc1)C(=O)N[C@@H](C)C(=O)O)C(C)C)[C@@H](C)O [Compound 4, FJ120DPB] (Ac-T[dV]PY[NMeF]A-OH)",77 µM,–
CC(C)[C@@H]1NC(=O)[C@H](Cc2ccccc2)NC1=O [cyclo(L-Phe-L-Val)],–,IC50 [3]: 110 µM
asperpeptide A,–,MIC [4]: 12.5 µM; MIC [5]: 12.5 µM
